In ChEMBL document CHEMBL1201862, “PubChem BioAssay data set” (2004):
“And” between values parts separate entries of the source, which are not always exact repeats. Identical values can stand only once.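 Exposure lasted 48 hours, with cells grown in 96-well plates and compounds tested at five concentrations. At the GI50, growth is halved.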 The source made the active and inactive calls. No stated cut-off is given here; in the data, active = GI50 up to about 1.1 µM and inactive = higher.

Assays:
Assay in all cases: DTP human tumour cell line panel, 48 h
786-0 = tested on: 786-0
CAKI-1 = tested on: CAKI-1
HCC 2998 = tested on: HCC 2998
Hs-578T = tested on: Hs-578T
IGROV-1 = tested on: IGROV-1
MCF7 = tested on: MCF7
MDA-MB-231 = tested on: MDA-MB-231
NCI-H226 = tested on: NCI-H226
OVCAR-3 = tested on: OVCAR-3
OVCAR-8 = tested on: OVCAR-8
RPMI-8226 = tested on: RPMI-8226
SK-MEL-28 = tested on: SK-MEL-28
SK-MEL-2 = tested on: SK-MEL-2
SK-OV-3 = tested on: SK-OV-3
SN12C = tested on: SN12C
SNB-19 = tested on: SNB-19
SR = tested on: SR
UACC-257 = tested on: UACC-257
UO-31 = tested on: UO-31
T47D = tested on: T47D

Structure (SMILES)	GI50 (786-0)	GI50 (CAKI-1)	GI50 (HCC 2998)	GI50 (Hs-578T)	GI50 (IGROV-1)	GI50 (MCF7)	GI50 (MDA-MB-231)	GI50 (NCI-H226)	GI50 (OVCAR-3)	GI50 (OVCAR-8)	GI50 (RPMI-8226)	GI50 (SK-MEL-28)	GI50 (SK-MEL-2)	GI50 (SK-OV-3)	GI50 (SN12C)	GI50 (SNB-19)	GI50 (SR)	GI50 (UACC-257)	GI50 (UO-31)	GI50 (T47D)
CN(C)c1ccc(/C=c2\c3ccccc3n3c2cc(-c2ccccc2)[n+]3C)cc1	0.142 µM (active)	0.716 µM (active)	1.35 µM (inactive)	0.0335 µM (active)	0.0689 µM (active)	0.124 µM (active)	0.222 µM (active)	< 0.01 µM (active)	0.0752 µM (active)	0.0726 µM (active)	0.0172 µM (active)	0.365 µM (active)	0.175 µM (active)	0.303 µM (active)	0.149 µM (active)	0.0771 µM (active)	0.16 µM (active)	0.243 µM (active)	0.383 µM (active)	
O=C1/C(=C/c2ccccc2)CCc2ccccc21	17.5 µM (inactive)	17.7 µM (inactive)	16.3 µM (inactive)	19.8 µM (inactive)	21.4 µM (inactive)	5.15 µM (inactive)	26.2 µM (inactive)	18.3 µM (inactive)	16.6 µM (inactive)	25.6 µM (inactive)	3.11 µM (inactive)	19 µM (inactive)		25.6 µM (inactive)	21.9 µM (inactive)	10.4 µM (inactive)	9.71 µM (inactive)	16.1 µM (inactive)	14.6 µM (inactive)	
O=[N+]([O-])c1ccccc1CSc1nc(O)c2nc[nH]c2n1	> 100 µM (inactive)	90.4 µM (inactive)		52.4 µM (inactive)	> 100 µM (inactive)	> 100 µM (inactive) and > 99.3 µM (inactive)			> 100 µM (inactive)	> 100 µM (inactive)	> 100 µM (inactive) and 89.3 µM (inactive)	> 100 µM (inactive)	> 100 µM (inactive)	63.8 µM (inactive)	> 100 µM (inactive) and 66.4 µM (inactive)	59.8 µM (inactive)	> 100 µM (inactive)	81.3 µM (inactive)		> 100 µM (inactive) and 75.7 µM (inactive)
CC[C@H]1C[C@@H](O)[C@@H]2[C@H](O)[C@H](O)CN2C1	> 100 µM (inactive)		> 100 µM (inactive)	> 100 µM (inactive)	> 100 µM (inactive)	> 100 µM (inactive)		> 100 µM (inactive)	> 100 µM (inactive)	> 100 µM (inactive)	> 100 µM (inactive)	> 100 µM (inactive)	> 100 µM (inactive)	> 100 µM (inactive)	> 100 µM (inactive)	> 100 µM (inactive)		> 100 µM (inactive)		> 100 µM (inactive)
CC(C)C1=C(Cc2ccccc2)C(=O)O/C1=C\c1ccc(O)c(Cl)c1	16.5 µM (inactive)	18.6 µM (inactive)	14.6 µM (inactive)	13.6 µM (inactive)	16.8 µM (inactive)	15.7 µM (inactive)	16.2 µM (inactive)	16.6 µM (inactive)	14.8 µM (inactive)	18.3 µM (inactive)	12.4 µM (inactive)	16.9 µM (inactive)		19.5 µM (inactive)	16.9 µM (inactive)	11.5 µM (inactive)	10.4 µM (inactive)	18.8 µM (inactive)	14.4 µM (inactive)	
c1ccc2cc3c(NC4=NCCO4)cccc3cc2c1	57 µM (inactive)	52.5 µM (inactive)		41.8 µM (inactive)	60.8 µM (inactive)	68.7 µM (inactive)	25.2 µM (inactive)	52.2 µM (inactive)	32.2 µM (inactive)	48.5 µM (inactive)	39 µM (inactive)	> 100 µM (inactive)	46.1 µM (inactive)	> 100 µM (inactive)	58.5 µM (inactive)	78.7 µM (inactive)	36 µM (inactive)	48.5 µM (inactive)	53 µM (inactive)	
